Tests used:
Type in all cases: cell-based
[1] = test system: MMP-1; experiment: MMP-1 ELISA on supernatants of chondrocytes stimulated with IL-1β; conditions: Homo sapiens, Chondrocyte; chondrocytes pretreated 2 hours, IL-1β 24 hours; protein (ELISA); N/A = did not affect MMP levels; read-out: IC50 constants for inhibition of MMP activity, MMP-1
Procedure: (§1) The effects of dendrimer compounds comprising n-acyl urea terminal moieties (i.e., dd-NAU) were evaluated for MMP activity in chondrocytes. […] In some instances, these effects were compared to dendrimer compounds comprising glucosamine terminal moieties (i.e., dd-Gln) and/or ethyl dimethylaminopropylurea (EDU). Chondrocytes were grown to confluency in 6-well plates (4 donors). The chondrocytes were pretreated with dendrimers (e.g., dd-NAU or dd-Gln) or EDU for 2 hours and then stimulated with IL-1β for 24 hours. Supernatants were collected and MMP-1, -3, and 13 ELISA assays were performed. The cells were collected for RNA analysis (3 donors).
(§2) Chondrocytes were grown to confluency in 6-well plates (2 donors). […] Supernatants were collected and MMP-1, -3, and 13 ELISA assays were performed. Neutral Red assays and Calcien AM assays were also performed on the chondrocytes to determine cell viability.

[2] = test system: MMP-3; experiment: MMP-3 ELISA on supernatants of chondrocytes stimulated with IL-1β; conditions: Homo sapiens, Chondrocyte; chondrocytes pretreated 2 hours, IL-1β 24 hours; protein (ELISA); N/A = did not affect MMP levels; read-out: IC50 constants for inhibition of MMP activity, MMP-3
Procedure: as §1, §2

[3] = test system: MMP-13; experiment: MMP-13 ELISA on supernatants of chondrocytes stimulated with IL-1β; conditions: Homo sapiens, Chondrocyte; chondrocytes pretreated 2 hours, IL-1β 24 hours; protein (ELISA); N/A = did not affect MMP levels; read-out: IC50 constants for inhibition of MMP activity, MMP-13
Procedure: as §1, §2

IC50 [1]: 1.42 mM
IC50 [2]: 0.6 mM
IC50 [3]: 1.4 mM
Structure (SMILES): N[C@H]1C(O)O[C@H](CO)[C@@H](O)[C@@H]1O (stereo partly drawn) [Glucosamine]

— patent US9283247B2, “Chemically modified dendrimers” (Genzyme Corporation, priority 2007, dated 2016)
